According to patent EP1082127B1 (WARNER-LAMBERT COMPANY LLC, priority 1998, dated 1999):

Experiments:
[1] = test system: IL-1β production in human peripheral blood mononuclear cells (PBMCs); test: PBMC Cellular Assay - IC50 Determinations (LPS-stimulated IL-1β production, ELISA); assay type: cell-based; settings: human PBMCs stimulated overnight with 10 ng/mL LPS, mature IL-1β by ELISA
Description: Further evidence that compounds of Formula I are inhibitors of ICE is provided by their ability to inhibit IL-1β production in human peripheral blood mononuclear cells (PBMCs) as described herein. PBMCs are isolated from heparinized blood by centrifugation over a ficoll cushion, then washed three times with phosphate-buffered saline. PBMCs are suspended in a medium containing RPMI 1640 with glutamine, penicillin, streptomycin, and 2% human AB serum, then plated at 10^6 cells per well in 96-well flat bottom plates. PBMCs are stimulated overnight with 10 ng/mL of lipopolysaccharide (LPS, E. coli strain 0111:B4; Calbiochem) in the presence or absence of a compound of Formula I. Medium is harvested, and the level of mature IL-1β was determined using an ELISA kit from R&D Systems. Cells were cultured for an additional 4 hours in the presence of 3-(4,5-dimethylthiazol-2-yl)-2,5-diphenyltetrazolium bromide (MTT) to determine viability.

Ich-2 enzyme = molecular target: T1, Ich-2 enzyme (Homo sapiens, UniProt P49662); test: Ich-2 Colorimetric Dose-Response (IC50) Assay; assay type: biochemical; settings: enzyme 64 nM, 60 µM Ac-Leu-Glu-Val-Asp-pNA; read-out: ICH2 IC50 (Caspase 4)
T1 sequence (P49662 81-270 limits assumed): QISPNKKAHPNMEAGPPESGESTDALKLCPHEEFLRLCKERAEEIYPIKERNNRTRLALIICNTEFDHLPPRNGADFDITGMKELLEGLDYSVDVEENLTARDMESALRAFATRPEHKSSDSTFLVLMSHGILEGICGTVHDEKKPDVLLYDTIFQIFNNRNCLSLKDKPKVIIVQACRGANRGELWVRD
T1 sequence (P49662 290-377 limits assumed): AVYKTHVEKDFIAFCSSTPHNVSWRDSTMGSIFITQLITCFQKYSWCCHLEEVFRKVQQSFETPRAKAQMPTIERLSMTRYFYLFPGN
Experimental: (§1) Diluted inhibitor stocks are prepared by two-fold serial dilution from a primary stock whose concentration is selected (based on screening results or on prior attempts at IC50 evaluation) to achieve approximately 95% inhibition in the most concentrated well. Aliquots of each dilution are transferred to a microtitre plate in triplicate.
(§2) ICE enzyme is diluted to approximately 24 nM in HGE buffer (100 mM Hepes pH 7.5, 0.5 mM EDTA, 20% glycerol, 0.1% Bovine Serum Albumin (BSA), and activated by adding dithiothreitol (DTT) to a final concentration of 5 mM. The activated enzyme is then aliquoted into wells containing inhibitor or vehicle, and the plate is preincubated for 60 minutes at ambient temperature. Substrate (Ac-Tyr-Val-Ala-Asp-pNA) is added to each well to a final concentration of 50 µM, and plates are placed in the microtitre plate-reader thermostated to 25°C. Beginning 5 minutes after addition of substrate, absorbance (405 nm) of wells is monitored for 1 hour, and activity is calculated as the mean rate of change in absorbance during this interval.
Inhibition of Ich-2 enzyme is assayed as described above for ICE, except that enzyme is used at 64 nM, and 60 µM of the Ich-2-specific substrate Ac-Leu-Glu-Val-Asp-pNA is used instead of the ICE substrate Ac-Tyr-Val-Ala-Asp-pNA.

ICE [2] = molecular target: T2, ICE (Homo sapiens, UniProt P29466); test: ICE inhibition, Ki determination (fluorogenic substrate Ac-Tyr-Val-Ala-Asp-AMC); assay type: biochemical; settings: 15 µM Ac-Tyr-Val-Ala-Asp-AMC, 0.5 nM enzyme, 30°C, reversible competitive model
T2 sequence (P29466 120-297 limits assumed): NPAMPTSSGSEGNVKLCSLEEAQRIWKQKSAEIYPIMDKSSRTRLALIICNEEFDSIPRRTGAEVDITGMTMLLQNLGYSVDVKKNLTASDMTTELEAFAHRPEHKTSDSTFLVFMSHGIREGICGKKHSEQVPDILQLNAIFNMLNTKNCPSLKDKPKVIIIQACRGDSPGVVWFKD
T2 sequence (P29466 317-404 limits assumed): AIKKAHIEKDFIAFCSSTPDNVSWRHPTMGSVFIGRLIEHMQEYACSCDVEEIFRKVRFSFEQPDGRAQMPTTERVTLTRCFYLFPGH
Experimental: Serial dilutions of each compound of the invention are prepared using an initial 8-fold dilution of a DMSO stock into HGE (100 mM HEPES, 20% glycerol v/v, 0.5 mM EDTA), followed by seven serial 2-fold dilutions into HGE + 12.5% DMSO. Ten microliters of diluted stocks or of vehicle (HGE + 12.5% DMSO) are placed in triplicate onto a 96-well microtiter plate. Enzyme is diluted into assay buffer (HGE, 5 mM DTT, 15 µM Ac-Tyr-Val-Ala-Asp-AMC; 0.5 nM final enzyme concentration, pre-warmed to 30°C), and this reaction mixture is added to the plate at 90 µL/well. Substrate hydrolysis is monitored for 300 seconds at 30°C using 385 and 460 nm excitation and emission filters, respectively. Triplicate curves are averaged, and slopes are evaluated by linear regression. To evaluate Ki, plots of percent inhibition vs inhibitor concentration are fit by non-linear regression to a reversible, competitive model: [formula] where the competition factor is (1 + [S]/KM) = 2.

ICE [3] = molecular target: T2, ICE; test: ICE Colorimetric Dose-Response (IC50) Assay; assay type: biochemical; settings: 60 minutes preincubation, 50 µM Ac-Tyr-Val-Ala-Asp-pNA, 25°C
Experimental: as §1, §2

IC50 (Ich-2 enzyme) [nM] | Ki (ICE [2]) [nM] | IC50 (ICE [3]) [nM] | SMILES | IC50 [1] [nM]
4650 | 45 | 400 | CC(C)C(CC(=O)NCCc1ccccc1)C(=O)NC(CC(=O)O)C(=O)CNS(=O)(=O)CC12CCC(CC1=O)C2(C)C (stereo not drawn) [Example 3, 5-(7,7-Dimethyl-2-oxo-bicyclo[2.2.1]hept-1-ylmethanesulfonylamino)-3-[3-methyl-2-(phenethylcarbamoyl-methyl)-butyrylamino]-4-oxo-pentanoic acid] | 3000
9020 | 336 | 3550 | CC(C)C(CC(=O)NCCc1ccccc1)C(=O)NC(CC(=O)O)C(=O)CNS(=O)(=O)CCc1ccccc1 (stereo not drawn) [Example 5, 3-[3-Methyl-2-(phenethylcarbamoyl-methyl)-butyrylamino]-4-oxo-5-(2-phenyl-ethanesulfonylamino)-pentanoic acid] | 35000
20700 | 115 | 444 | CC(C)[C@H](CC(=O)NCCCc1ccccc1)C(=O)N[C@H](C=O)CC(=O)O [Example 7, (S,S)-3-{3-Methyl-2-[(3-phenyl-propylcarbamoyl)-methyl]-butyrylamino}-4-oxo-butyric acid] | 6000
25700 | 539 | 3270 | CC(C)C(CC(=O)NCCc1ccccc1)C(=O)NC(CC(=O)O)C(=O)CSCCCc1ccccc1 (stereo not drawn) [Example 10, 3-[3-Methyl-2-(phenethylcarbamoyl-methyl)-butyrylamino]-4-oxo-5-(3-phenyl-propylsulfanyl)-pentanoic acid] | 21500
1710 | 12.8 | 61 | CC(C)C(CC(=O)NCCCc1ccccc1)C(=O)NC(CC(=O)O)C(=O)CNS(=O)(=O)CC12CCC(CC1=O)C2(C)C (stereo not drawn) [Example 12, 5-(7,7-Dimethyl-2-oxo-bicyclo[2.2.1]hept-1-ylmethanesulfonylamino)-3-{3-methyl-2-[(3-phenyl-propylcarbamoyl)-methyl]-butyrylamino}-4-oxo-pentanoic acid] | 1200
250 | 6.7 | 52 | CC(C)C(CC(=O)NCCCc1ccccc1)C(=O)NC(CC(=O)O)C(=O)COc1ccc2oc(=O)ccc2c1 (stereo not drawn) [Example 13, 3-{3-Methyl-2-[(3-phenyl-propylcarbamoyl)-methyl]-butyrylamino}-4-oxo-5-(2-oxo-2H-chromen-6-yloxy)-pentanoic acid] | 2350

More lines, now with the values behind:

SMILES | IC50 (Ich-2 enzyme) [nM] | Ki (ICE [2]) [nM] | IC50 (ICE [3]) [nM] | IC50 [1] [nM]
CC(C)C(CC(N)=O)C(=O)NC(CC(=O)O)C(=O)CNS(=O)(=O)CC12CCC(CC1=O)C2(C)C (stereo not drawn) [Example 2, 3-(2-Carbamoylmethyl-3-methyl-butyrylamino)-5-(7,7-dimethyl-2-oxo-bicyclo[2.2.1]hept-1-ylmethanesulfonylamino)-4-oxo-pentanoic acid] | 3310 | 106 | 790 | 6250
CC(C)C(CC(N)=O)C(=O)NC(CC(=O)O)C(=O)CNS(=O)(=O)CCc1ccccc1 (stereo not drawn) [Example 4, 3-(2-Carbamoylmethyl-3-methyl-butyrylamino)-4-oxo-5-(2-phenyl-ethanesulfonyl-amino)-pentanoic acid] | 9720 | 2180 | 16800 | 65000
CC(C)C(CC(=O)NCCc1ccccc1)C(=O)NC(CC(=O)O)C(=O)CNS(=O)(=O)CC12CCC(CC1)C2(C)C (stereo not drawn) [Example 6, 5-(7,7-Dimethyl-bicyclo[2.2.1]hept-1-ylmethanesulfonylamino)-3-[3-methyl-2-(phenethylcarbamoyl-methyl)-butyrylamino]-4-oxo-pentanoic acid] | 9590 | 142 | 1060 | 3250
CC(C)C(CC(=O)NCCOc1ccccc1)C(=O)NC(CC(=O)O)C(=O)CNS(=O)(=O)CC12CCC(CC1=O)C2(C)C (stereo not drawn) [Example 9, 5-(7,7-Dimethyl-2-oxo-bicyclo[2.2.1]hept-1-ylmethanesulfonylamino)-3-{3-methyl-2-[(2-phenoxy-ethylcarbamoyl)-methyl]-butyrylamino}-4-oxo-pentanoic acid] | 4220 | 23.4 | 53 | 2100
CC(C)C(CC(=O)N(C)CCc1ccccc1)C(=O)NC(CC(=O)O)C(=O)CNS(=O)(=O)CC12CCC(CC1=O)C2(C)C (stereo not drawn) [Example 11, 5-(7,7-Dimethyl-2-oxo-bicyclo[2.2.1]hept-1-ylmethanesulfonylamino)-3-{3-methyl-2-[(methyl-phenethyl-carbamoyl)-methyl]-butyrylamino}-4-oxopentanoic acid] | 15700 | 58 | 440 | 5500
CC(C)C(CC(=O)NO)C(=O)NC(CC(=O)O)C(=O)CNS(=O)(=O)CC12CCC(CC1=O)C2(C)C (stereo not drawn) [Example 15, 5-(7,7-Dimethyl-2-oxo-bicyclo[2.2.1]hept-1-ylmethanesulfonylamino)-3-(2-hydroxycarbamoylmethyl-3-methyl-butyrylamino)-4-oxo-pentanoic acid] | 13100 | 441 | 2050 | 17500
CC(C)C(CC(=O)NCCc1c[nH]c2ccccc12)C(=O)NC(CC(=O)O)C(=O)CNS(=O)(=O)CC12CCC(CC1=O)C2(C)C (stereo not drawn) [Example 16, 5-(7,7-Dimethyl-2-oxo-bicyclo[2.2.1]hept-1-ylmethanesulfonylamino)-3-(2-{[2-(1H-indol-3-yl)-ethylcarbamoyl]-methyl}-3-methyl-butyrylamino)-4-oxo-pentanoic acid] | 1470 | 2.5 | 5.1 | 350
CC(C)C(CC(=O)NCCCc1ccc(O)cc1)C(=O)NC(CC(=O)O)C(=O)CNS(=O)(=O)CC12CCC(CC1=O)C2(C)C (stereo not drawn) [Example 17, 5-(7,7-Dimethyl-2-oxo-bicyclo[2.2.1]hept-1-ylmethanesulfonylamino)-3-{3-methyl-2-[[3-(4-hydroxyphenyl)-propylcarbamoyl]-methyl]-butyrylamino}-4-oxo-pentanoic acid] | 4680 | 32.9 | 79 | 2250
CC(C)C(CC(=O)NCCc1ccc2ccccc2c1)C(=O)NC(CC(=O)O)C(=O)CNS(=O)(=O)CC12CCC(CC1=O)C2(C)C (stereo not drawn) [Example 18, 5-(7,7-Dimethyl-2-oxo-bicyclo[2.2.1]hept-1-ylmethanesulfonylamino)-3-{3-methyl-2-[(2-naphthalen-2-yl-ethylcarbamoyl)-methyl]-butyrylamino}-4-oxo-pentanoic acid] | 3010 | 23.6 | 89.4 | 2050
